Entries after “also recorded” stand apart in the source; their conditions may differ. Where two headings read alike, the source gives them in different places.

The target of series [1] is T1, GST-Pdia4 (Homo sapiens, UniProt P13667).
T1 construct: made in house; host or cells: E. coli BL21 DE3 pLysS
T1 sequence (P13667 21-645): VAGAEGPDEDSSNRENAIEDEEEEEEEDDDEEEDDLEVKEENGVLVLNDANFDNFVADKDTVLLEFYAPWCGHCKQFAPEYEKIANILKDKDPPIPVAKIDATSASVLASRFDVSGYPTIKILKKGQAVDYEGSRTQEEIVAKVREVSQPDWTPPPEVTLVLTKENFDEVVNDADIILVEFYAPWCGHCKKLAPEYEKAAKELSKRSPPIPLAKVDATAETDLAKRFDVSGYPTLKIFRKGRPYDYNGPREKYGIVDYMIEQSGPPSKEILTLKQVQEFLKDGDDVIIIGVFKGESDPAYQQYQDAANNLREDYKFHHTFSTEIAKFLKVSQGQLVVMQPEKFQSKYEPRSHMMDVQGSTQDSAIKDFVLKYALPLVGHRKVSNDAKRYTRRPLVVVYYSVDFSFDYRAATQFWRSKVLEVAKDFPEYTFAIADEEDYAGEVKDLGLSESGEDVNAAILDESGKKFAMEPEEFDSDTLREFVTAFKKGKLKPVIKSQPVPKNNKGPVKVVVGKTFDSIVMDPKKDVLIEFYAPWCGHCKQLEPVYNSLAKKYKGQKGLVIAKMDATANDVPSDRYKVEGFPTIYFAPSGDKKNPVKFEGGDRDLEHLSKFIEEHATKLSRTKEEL
Kind of series: Pull down assay of GST fusion proteins with BCP (avidin-POD blot). Format: binding. The following applies: 2-mercaptoethanol added to the incubation. The protocol: (§1) pGEX4T3-Hspa5, pGEX4T3-Pdia4, and pGEX4T3-TecSH3 were obtained by cloning human Hspa5 cDNA, human Pdia4 cDNA and the SH3 domain of mouse Tec cDNA to a pGEX4T3 vector, respectively. GST fusion proteins were purified from the bacterial host E. coli BL21 DE3 pLysS, which harbored the above constructs, according to the manufacturer's instructions (Amersham Biosciences, NJ, USA). Glutathione agarose bead-bound GST fusion proteins (0.15 μg) were incubated with DMSO vehicle or BCP (0.026 μg) for overnight. The proteins were separated by SDS-PAGE and blotted with avidin-POD. For competition assays, CP (0.16 μg (10-fold) and 0.81 μm (50-fold)) or CPA (0.09 μg (10-fold) and 0.45 μm (50-fold)) was added to the above incubation. For interference assay, 2-mercaptoethanol (2.2 mg) was added to the incubation. To test effect of CPA on disulfide isomerase activity of GST-Pdia4, reduced BPTI (0.39 μg) was incubated with redox buffer in the presence of vehicle, 5.64 μg GST-Pdia4 or 5.64 μg GST-Pdia4 plus CPA (0.33 μg). Enzymatic activity of GST-Pdia4, shown as fraction remaining (%), was determined by the conversion of the reduced BPTI into disulfide intermediates as described (Satoh, M., et al. (2005) Cell Stress Chap. 10(3), 211-220).

Series [2] addresses T1, GST-Pdia4. Kind of series: Competition assay for binding of GST-Pdia4 and BCP. As to conditions: 10-fold and 50-fold excess. On the procedure: as §1
The subject of series [3] is Jurkat cells. Kind of series: Cell growth and death by counting living and dead cells with eosin Y. The class given is cell-based. As to conditions: for Jurkat cell growth: indicated concentrations, 6 days. The protocol: (§2) FIGS. 1A-C Effect of cytopiloyne (CP) and cytopiloyne aglycone (CPA) on cell growth, death and proliferation. FIG. 1A-B are graphs showing effects of CP and CPA on growth and death of Jurkat cells. Jurkat cells were grown in RPMI medium in the presence of DMSO (−), CP and CPA at the indicated concentrations for 6 days. Numbers of living cells (FIG. 1A) and dead cells (FIG. 1B) were counted by using eosin Y and hematocytometer. Growth (%) is defined as 100% multiplied by the ratio of the living cell number with compound treatment to that with the control treatment. Death (%) is defined as 100% multiplied by the ratio of the dead cell number to a total of cells (both living and dead). FIG. 1C is a graph showing effect of CP and CPA on proliferation of Jurkat cells. Jurkat cells, which were already labeled with AFSE, were grown under the same condition as the Jurkat cells shown in FIGS. 1A-B. Mean fluorescent intensity (MFI) of the cells on days 0, 2, 4 and 6 were determined using FACS.
Jurkat cells were infected with different lentiviral particles 2 days prior to use. The cells were divided into 3 aliquots. One aliquot was tested for cell growth for 6 days and the number of live and dead cells was calculated using eosin Y. Another aliquot was stained with AFSE, monitored for cell proliferation for 6 days and followed byFACS analysis. Another aliquot was pulsed with 5-bromo-2-deoxyuridine (BrdU) for 30 minutes and chased for 0 to 48 hours. The cells underwent intracellular staining with anti-BrdU antibody and FACS analysis. The other aliquot was tested for caspase activity. Caspase 3/7 fluorescent substrate was incubated with 1 μg of total lysate and caspase activity, shown in relative light unit (RLU), was measured with Victor V luminescence counter. To evaluate in vivo tumor growth, lentivirally infected Jurkat cells (1×10^6) were subcutaneously inoculated into scid/beige mice. Tumor incidence, tumor size and survival rate of the tumor-bearing mice were scored.

The test system of another series is T cell. As to conditions: cited from earlier work.
In series [4] the test system is Jurkat cells. Kind of series: AFSE cell proliferation assay (FACS). Format: cell-based, human. The following applies: low doses, up to 6 days. The protocol:
as §2
Jurkat cells were infected with different lentiviral particles 2 days prior to use. […] One aliquot was tested for cell growth for 6 days and the number of live and dead cells was calculated using eosin Y. Another aliquot was stained with AFSE, monitored for cell proliferation for 6 days and followed byFACS analysis. […] Tumor incidence, tumor size and survival rate of the tumor-bearing mice were scored.

Series [5] deals with Jurkat cells. Kind of series: WST-1 assay (cell viability / growth inhibition). The class given is cell-based, human. The following applies: WST-1, 24 hour incubation. The protocol: WST-1 assays were performed to measure cell viability. Briefly, Jurkat cells (5×10^3) were grown in 100 μl per well. After 24 hour incubation with DMSO or CP derivatives, the cells were incubated with WST-1 at 37° C. for 30 minutes and characterized by 440 nm absorption. To stain BCP-bound proteins of Jurkat cells, 30 μM of DMSO, biotin and BCP was incubated with Jurkat cells for 24 hours, respectively. After washing, the cells underwent surface or intracellular staining with avidin-PE-TR (Caltag, Calif., USA), followed by fluorescence activated cell sorting (FACS) analysis. The FACS data were processed using FCS express 3.0 software (De Novo Inc, CA, USA).

Series [6] addresses T1, GST-Pdia4. Kind of series: Disulfide isomerase activity of GST-Pdia4 with reduced BPTI. The class given is biochemical. As to conditions: reduced BPTI substrate, redox buffer. On the procedure: as §1
Series [7] has as its system human umbilical vein endothelial cells. As to conditions: cited from earlier work.
In series [8] the target is T1, GST-Pdia4. Kind of series: MS/MS analysis of GST-Pdia4/CPA adduct. Format: binding. As to conditions: 24 hours, LC/MS/MS. On the procedure:
Band 1 were cut from the coomassie blue gel and subjected to in gel digestion. Briefly, the gel was dehydrated with acetonitrile, vacuum dried, and rehydrated with ammonium bicarbonate at 37° C. for 1 hour. After alkylation with iodoacetamide, the gel was suspended with 25 mM ammonium bicarbonate containing trypsin at 37° C. for 16 hours. Tryptic peptides were analyzed with LC-nanoESI-MS/MS system. Briefly, the peptides were trapped and desalted isocratically on an LC-Packings PepMap™ C18 μ-Precolumn™ Cartidge (300 μm i.d.×5 mm; Dionex, Calif., USA) for 2 minutes with 0.1% formic acid. The peptides were separated on a C18 capillary column (15 cm×75 μm i.d.) packed with 5 μm, Zorbax 300 SB C18 paticles (Micro-Tech Scientific, Calif., USA), eluted using a 40 minute fast gradient of 5% to 80% acetonitrile containing 0.1% formic acid and subjected to Micromass Q-TOF Ultima™ API mass spectrometer, equipped with an ESI source. After data acquisition, MS/MS spectra for the sample were combined and querred against non-redundant protein database using Mascot program (Matrix Science, MA, USA). For MS/MS analysis of GST-Pdia4 and GST-Pdia4/CPA adduct, GST-Pdia4 (200 μg) was incubated with DMSO or CPA (24 μg) for 24 hours. The proteins underwent LC/MS/MS analysis.

In series [9] the test system is TS/A, mammary gland carcinoma. Kind of series: Cell death of TS/A mammary gland carcinoma. The class given is cell-based.
The subject of a further series is tumor cell. As to conditions: cited from earlier work.

Regarding `OCCS` [2-mercaptoethanol], at GST-Pdia4 [1], the “interference of GST-Pdia4/BCP interaction by reducing agent” value is “significantly diminished the interplay of GST-Pdia4 and BCP”.

Regarding `CC#CC#CC#CC#CCCC(CO)O[C@@H]1O[C@H](CO)[C@@H](O)[C@H](O)[C@H]1O` (some centres unmarked) [CP, cytopiloyne], at GST-Pdia4 [2], the “interference with interaction between BCP and GST-Pdia4” value is “could interfere with the interaction between BCP and GST-Pdia4 at a dose-dependent manner”. Further, in the series with Jurkat cells [3], the “cytotoxicity at low doses” value was “did not show significant cytotocxicity” and the Jurkat cell growth entry is “inhibited Jurkat cell growth in a dose-dependent manner”. Besides, in the series with T cell, the T cell proliferation entry is given as “showed an inhibition of T cell proliferation”. The Jurkat cell proliferation result in the series on Jurkat cells [4] is given as “significantly suppressed Jurkat cell proliferation”. Besides, in the series on Jurkat cells [5], the “half maximal inhibitory concentration (IC50) for growth inhibition of Jurkat cells” value was 52.8 µg/mL.

For `CC#CC#CC#CC#CCCC(O)CO` (centres unmarked) [CPA, cytopiloyne aglycone], the “interference with interaction between BCP and GST-Pdia4” value on GST-Pdia4 [2] was “could interfere with the interaction between BCP and GST-Pdia4 at a dose-dependent manner; also recorded: more effective for the interference than CP”. Moreover, the “disulfide isomerase activity of GST-Pdia4” value at GST-Pdia4 [6] is “inhibited this activity”. Moreover, the “cytotoxicity at low doses” value with Jurkat cells [3] (CPA from 0.7 to 1.3 μg/ml) is “did not show significant cytotocxicity”. For the same molecule, the Jurkat cell growth result with Jurkat cells [3] is recorded as “inhibited Jurkat cell growth in a dose-dependent manner”. For the same molecule, the “cell death of human umbilical vein endothelial cells” value in series [7] is “promoted cell death”. The “covalent adduct of CPA on GST-Pdia4” value at GST-Pdia4 [8] is “adducted to two cysteine residues of the second CGHC motif of Pdia4”. The “cell death of TS/A” value in [9] was “induce cell death”. Further, the Jurkat cell proliferation entry with Jurkat cells [4] is “significantly suppressed Jurkat cell proliferation”. The “half maximal inhibitory concentration (IC50) for growth inhibition of Jurkat cells” value in the series on Jurkat cells [5] was 2.5 µg/mL.

As for bacitricin, in the series on tumor cell, the tumor cell death result is recorded as “cause tumor cell death”.

The values above are taken from patent US9382330B2, “Pdia4, target of cytopiloyne derivatives, for tumor diagnosis and treatment” (ACADEMIA SINICA, priority 2010, dated 2016).
